Consider four molecules from patent US4536402A, “Vinylogous carboxamides” (Dr. Karl Thomae Gesellschaft mit beschranter Haftung, priority 1982, dated 1985).

Each structure is given as a SMILES string. Read-outs that look alike come from different tables or passages of the source. Some results are limits rather than exact numbers.

In general, ED50 refers to the dose at which the effect has come halfway, by size or by number of responders. One may read the LD50 as the dose expected to kill half of the subjects tested.

The subject of series [1] is tonic extensor spasm in the back legs of male mice subjected to maximum electric shock. Description: Anticonvulsant activity in mice: inhibition of tonic extensor spasm after maximum electric shock. Format: in vivo, male SPF mice (Chbb:NMRI). To be noted: Mus musculus, oral. Here is the method:
The anticonvulsant activity was tested by measuring the inhibition of tonic extensor spasm in the back legs of male mice subjected to maximum electric shock.
The test animals used were male SPF mice (Chbb:NMRI) weighing from 20-26 gm which had access to standard food and drinking water up to one hour before the oral administration of the test substance.
The test was carried out using the method described by Swinyard, Brown and Goodman (J. Pharmacol. Exp. Ther. 106, 319, [1952]). The electric shock apparatus was constructed in accordance with the specifications provided by Woodbury and Davenport (Arch. Int. Pharmacodyn. 92, 97, [1952]). The electrical stimuli were administered to the animals' temples above their eyes, through steel ball electrodes covered with chamois and moistened with 0.9% NaCl solution. The stimuli were administered using alternating current, 50 Hz and 50 mA, with a duration of 0.2 sec.
The substance to be tested was suspended in 1% tylose mucilage and administered orally in a volume of 0.1 ml/10 gm body weight of the mice, each dosage being administered to 10 mice. The animals were given the shocks 30, 150 and 300 minutes after the administration of the test substance, and the ED50 values were determined graphically or by using the method of Litchfield and Wilcoxon (J. Pharmacol. Exp. Ther. 96, 99, [1949]) from the dosage which protects 50% of the animals from the tonic extension spasm of the rear extremities.

For series [2], the system named is tonic extensor spasms in the back legs of male rats subjected to maximum electric shock. In words: Anticonvulsant activity in rats: inhibition of tonic extensor spasms after maximum electric shock. Format: in vivo, male SPF rats (Chbb:THOM). To be noted: for % protected / animals protected: N=6, one hour. How it is done:
The anticonvulsant activity was tested by measuring the inhibition of tonic extensor spasms in the back legs of male rats subjected to maximum electric shock.
The test animals used were male SPF rats (Chbb:THOM) weighing from 100-120 gm which had access to standard food and drinking water up to one hour before the oral administration of the test substance.
The test was carried out using the method described by Swinyard, Brown and Goodman (J. Pharmacol. Exp. Ther. 106, 319, [1952]). The electric shock apparatus was constructed in accordance with the specifications provided by Woodbury and Davenport (Arch. Int. Pharmacodyn. 92, 97 [1952]). The electrical stimuli were applied to the temples above the eyes, using moistened steel ball electrodes. The parameters of the stimuli were as follows: alternating current 50 Hz, 50 mA, duration of stimulus 0.2 sec. In all the control animals, clonic and then tonic extension spasm of the extremities occurred; the latter can be prevented by means of effective anticonvulsant agents.
The substance to be tested was suspended in 2% tylose mucilage and administered orally, in a volume of 1 ml/100 gm body weight of the rat, in dosages of 1.56, 3.125, 6.25 and 12.5 mg/kg, each dose being administered to 6 rats. One hour later, the animals were subjected to electric shock and the ED50 was calculated as the dosage which protected 50% of the animals against tonic extension spasms in the rear extremities, with confidence limits for a 5% probability of error.

Series [3] can be described thus: Approximate acute toxicity in mice, p.o. Format: in vivo. To be noted: in vivo; mouse, oral, 14 days. The text has this: (§1) Approximate acute toxicity in mice, compound A, p.o.
A further series relates to mice. Description: Approximate acute toxicity in mice, p.o. Format: in vivo. The conditions noted are these: for Number of animals which died in 14 days: mice.
Excerpt: as §1

Series [4] is described as follows: Acute toxicity in the rat, p.o. It counts as in vivo. The conditions noted are these: in vivo; for mortality at 336 h: N=10, read-out: Animals which died in 14 days, %. The text has this:
(§2) Acute toxicity in the rat, compound A, p.o.

The subject of the next series is rat. Description: Acute toxicity in the rat, p.o. It counts as in vivo. To be noted: for Animals which died in 14 days: N=10.
Excerpt: as §2

In series [5] the test system is fatty and cartilaginous tissue (kidney fat and sternum). In words: Tests for yellow coloration of fatty and cartilaginous tissue in the rat. It counts as in vivo, male rats, Chbb:THOM (SPF). How it is done:
The yellow coloration of fatty and cartilaginous tissue following the oral administration of 50 and 400 mg/kg of compound E and compound A once a day over a period of 51/2 weeks was investigated. The compounds were homogeneously suspended in 1.5% tylose by several hours' stirring. The compounds were administered through an esophageal tube. The volume administered was about 1.4 ml. 9 to 11 male rats [of the Chbb:THOM (SPF) strain] with a body weight of 263±10 gm were used for each dose. At different times, animals were taken from the four treated groups and one control group and the kidney fat and sternum were removed after the animal had been bled from the abdominal aorta.

Series [6] shares this test system. To be noted: known compound, general statement; cited from earlier work.
[7] abbreviates: 0.5 h, shock 30 minutes after administration.
Where [8] appears, read: 2.5 h, shock 150 minutes after administration.
Setting [9] is: 5 h, shock 300 minutes after administration.
Setting [10] is: 50 mg/kg oral once a day, 17 days.
The mark [11] stands for this setting: 50 mg/kg oral once a day, 36 days.
The mark [12] stands for this setting: 50 mg/kg oral once a day, 38 days.
Setting [13] is: 50 mg/kg oral once a day, 39 days.
The mark [14] stands for this setting: 400 mg/kg oral once a day, 2 days.
Where [15] appears, read: 400 mg/kg oral once a day, 4 days.
[16] abbreviates: 400 mg/kg oral once a day, 9 days.
The mark [17] stands for this setting: 400 mg/kg oral once a day, 17 days.
The mark [18] stands for this setting: 400 mg/kg oral once a day, 36 days.
[19] abbreviates: 400 mg/kg oral once a day, 38 days.
[20] abbreviates: 400 mg/kg oral once a day, 39 days.

Consider `N/C(=C1\C(=O)c2ccccc2[S+]1[O-])c1ccccc1Cl` (centres unmarked) [B, (E)-2-[(amino)-2-chlorophenylmethylene]-benzo[b]thiophen-3(2H)-one-1-oxide], for which the ED50 in series [1] (setting [7]) was 8.1 mg/kg; in series [1] (setting [8]), 7.4 mg/kg; in series [1] (setting [9]) it was 8.3 mg/kg.
For `CCN/C(=C1\C(=O)c2ccccc2[S+]1[O-])c1ccccc1` (centres unmarked) [C, (E)-2-[(ethylamino)phenylmethylene]-benzo[b]thiophen-3(2H)-one-1-oxide], the ED50 in series [1] (setting [7]) worked out at 17.1 mg/kg; in series [1] (setting [8]) it was 61 mg/kg; in series [1] (setting [9]), 93.9 mg/kg.
For the molecule `N/C(=C1\C(=O)c2ccccc2[S+]1[O-])c1ccccc1` (centres unmarked) [Compound A, (E)-2-[(amino)phenylmethylene]-benzo[b]thiophen-3(2H)-one-1-oxide], the ED50 in series [1] (setting [7]) came to 12.5 mg/kg; in series [1] (setting [8]) it was 35 mg/kg; in series [1] (setting [9]), 88 mg/kg; in series [2] (Rattus norvegicus, 1 h, oral, one hour, read-out: ED50 (confidence limits, p≤0.05)), 3.25 mg/kg. The “% protected” value in series [2] (1.56 mg/kg p.o.) was determined as 0%; in series [2] (3.125 mg/kg p.o.) it was 67%; in series [2] (6.25 mg/kg p.o.), 83%; in series [2] (12.5 mg/kg p.o.), 100%. Moreover, the animals protected in series [2] (1.56 mg/kg p.o.) is recorded as 0 animals; in series [2] (3.125 mg/kg p.o.), 4 animals; in series [2] (6.25 mg/kg p.o.), 5 animals; in series [2] (12.5 mg/kg p.o.), 6 animals. Moreover, the LD50 at 336 h in series [3] is more than 4000 mg/kg; in series [4] (oral, 14 days, read-out: LD50 (confidence limits, p≤0.05)) it was 2600 mg/kg. Also, the “Number of animals which died in 14 days” value in the series with mice (500 mg/kg p.o., N=10) is recorded as 0 animals; in the series on mice (1000 mg/kg p.o., N=16), 1 animals; in the series on mice (1410 mg/kg p.o., N=10), 0 animals; in the series on mice (2000 mg/kg p.o., N=10), 2 animals; in the series on mice (4000 mg/kg p.o., N=10) it was 1 animals. For the same molecule, in the series on mice (mouse, in vivo, po), the tolerance result was “well tolerated”. The mortality at 336 h was 0% in series [4] (po, 1000 mg/kg p.o.); 40% in series [4] (po, 2000 mg/kg p.o.); 70% in series [4] (po, 4000 mg/kg p.o.). Further, the therapeutic index (LD50/ED50) in series [4] (po, LD50 / ED50, read-out: average toxic dose relative to average therapeutic dose) came to 800. Further, the “Animals which died in 14 days” value amounted to 0 animals in the series on rat (1000 mg/kg p.o.), 4 animals with rat (2000 mg/kg p.o.) and 7 animals in the series on rat (4000 mg/kg p.o.). Further, the toxic effects result with rat (in vivo, po) is reported as “only had toxic effects in very large dosages”. The “Number of animals with yellow kidney fat and sternum (number of animals dissected in brackets)” value in series [5] (setting [10]) is reported as 0 (1) animals; in series [5] (setting [11]), 0 (1) animals; in series [5] (setting [12]) it was 0 (1) animals; in series [5] (setting [13]), 0 (6) animals; in series [5] (setting [14]) it was 0 (1) animals; in series [5] (setting [15]), 0 (1) animals. The “Number of animals with yellow kidney fat and sternum (number of animals dissected in brackets)” value is 0 (1) animals in series [5] (setting [16]); 0 (1) animals in series [5] (setting [17]); 0 (1) animals in series [5] (setting [18]); 0 (1) animals in series [5] (setting [19]); 0 (2) animals in series [5] (setting [20]).
Consider `N/C(=C1/Sc2ccccc2C1=O)c1ccccc1` [Compound E, (E)-2-[(amino)phenylmethylene]-benzo[b]thiophen-3(2H)-one], for which the “Number of animals with yellow kidney fat and sternum (number of animals dissected in brackets)” value in series [5] (setting [10]) was 0 (1) animals; in series [5] (setting [11]) it was 0 (1) animals; in series [5] (setting [12]), 0 (1) animals; in series [5] (setting [13]), 0 (6) animals; in series [5] (setting [14]), 0 (1) animals; in series [5] (setting [15]), 0 (1) animals. The “Number of animals with yellow kidney fat and sternum (number of animals dissected in brackets)” value is on record as 0 (1) animals in series [5] (setting [16]); 1 (1) animals in series [5] (setting [17]); 1 (1) animals in series [5] (setting [18]); 1 (1) animals in series [5] (setting [19]); 5 (5) animals in series [5] (setting [20]). The “degree of yellow coloration of kidney fat and sternum” value was “very slight” in series [5] (setting [17]), “marked” in series [5] (setting [18]), “marked” in series [5] (setting [19]) and “marked” in series [5] (setting [20]). The “yellow coloration of the kidney fat and sternum” value in series [5] (400 mg/kg, from the 17th day p.a.) was “slight at first but became marked later”. For the same molecule, the “undesirable side effect: yellow coloration of fatty and cartilaginous tissue” value in series [6] is reported as “strong yellow coloration”.
